Test results as given in patent publication US20240426824A1, “METHODS RELATING TO TREATMENT OF ACUTE MYELOID LEUKEMIA” (BOARD OF REGENTS, THE UNIVERSITY OF TEXAS SYSTEM, priority 2021, published 2024).

Experiments:
[1] = tested on: adult patients with newly diagnosed AML; experiment: Clinical outcome of VTX-containing induction chemotherapy, clusters by 36-protein classifier (Example 2); type: in vivo, human
Description: Sample Collection and Processing. Peripheral blood (PB) and bone marrow (BM) samples were collected from 818 adult patients with newly diagnosed AML, of which 143 received VTX-containing induction chemotherapy, evaluated at the University of Texas MD Anderson Cancer Center (MDACC) between January 2012 and July 2020. Informed consent was obtained in accordance with the Declaration of Helsinki. Samples were processed and analyzed under an Investigational Review Board (IRB) approved laboratory protocol (Lab 06-0565).
Following data normalization, a cohort of 143 patients that received VTX-containing induction chemotherapy was identified for separate analysis for the purposes of this manuscript. Survival curves were generated by Kaplan-Meier method and survival data was analyzed by multivariate cox regression model. [Refs. 12, 13] Protein expression signatures were identified by hierarchical Progeny clustering. [Ref. 14] Correlations between clustered protein signatures and clinical features were assessed using Fisher's exact test for categorical variables and the Kruskal-Wallis test for continuous variables. Multivariate analysis for survival outcomes OS and RD was performed by Cox regression model. Median protein expression within clusters was compared to median expression in the normal controls to identify significant expression trends with the Wilcoxon test. Protein networks were built using Cytoscape (version 3.9.1) combining literature-based protein interactions queried from the STRING database and proteomic-based interactions inferred from the RPPA data derived from Pearson correlation. [Ref. 11] Predictive classifier models were assembled in Python using the random forest machine learning technique. All bioinformatics and analysis were performed in Rstudio (version 1.3.1093) with R (version 4.1.2).
A cohort of 143 patients that received VTX as a component of induction chemotherapy was identified, of which 27 received VTX combined with high-dose cytarabine (Ara-C), 29 combined with low- or standard-dose Ara-C, […], 6 with high-dose Ara-C and a hypomethylating agent, and 12 combined with targeted therapy (5 FLT3 inhibitors, 5 IDH inhibitors, 2 TP53 inhibitors). In the VTX cohort, 5 patients were not treated at MDACC leaving 138 patients evaluable for outcome and further analysis. Median age at diagnosis was 68 years (range 18-90 years) with median follow-up 58 weeks (range 2-396 weeks). […] Patient demographic, diagnostic labs, (data not shown) treatment, and outcome data was compiled to be analyzed against protein expression data.
Next, recurring patterns of expression were identified across the 36 proteins correlated to OS (FIGS. 3A and 3B) by applying the Progeny clustering algorithm utilizing k-means, and unbiased hierarchical clustering [Ref. 14] identifying three distinct protein expression patterns Cluster 1 (C1; n=41), Cluster 2 (C2; n=63), and Cluster 3 (C3; n=39). Protein expression was somewhat heterogeneous between clusters for several proteins, namely AR, STAT3.pY705, and RAF1.pS338. Expression of CDKN1B and CDKN1B.pS10 were nearly universally high in AML samples relative to the CD34+ controls, albeit phosphorylated CDKN1B was relatively higher in C1 members. While universally low across AMVL samples, ASH2L and MSH6 were relatively lower in the C1 signature as were PRMT1, MAPK14.pT180, HSF1.pS326, EIF4EBP1.pS65, EIF2AK2, and WDR5. The C3 signature was marked by relatively high expression of PrMT1, KMT2D, STAT3.pS727, EP300, and TSC2 and relatively low expression in AKR1C3, YWHAE, TNK1, COPS5, ATF3, SGK1, VTCN1, TNFRSF4, and PEA15.

[2] = tested on: MV4-11 VTX-sen cell line; experiment: Immunoblot protein expression after VTX treatment, MV4-11 cells; type: cell-based; conditions: 24 hours post treatment with VTX, identical experimental conditions
Experimental: Protein expression validation in AML cell lines. MOLM-13 parental and VTX-resistant cells were the kind gift of Dr. Marina Konopleva (MD Anderson Cancer Center; Houston, TX, USA). OCI-AML-3, KG-1, and MV4-11 cells were obtained from the Leukemia Sample Bank (LSB) at MD Anderson. For protein expression comparison in cell lines, immunoblot analysis was performed. Cells were boiled and sonicated in lysis buffer and protein (1.5×10^5 cell equivalents) was subjected to electrophoresis using SDS/PAGE. Immunoblot analysis was performed with antibodies against CBL (BD Transduction Lab), PRKCB.pS660 (Cell Signaling, Beverly, MA), SYK (Santa Cruz, Dallas, TX), PKM2 (Cell Signaling), STAT3.pS727 (Cell Signaling), Beta-Actin (Sigma Aldrich, St. Louis, MO), GADPH (Ambion, Austin, TX) and Alpha-Tubulin (Sigma Aldrich). Signals were detected by using the ProteinSimple FluorChem imaging system and quantified by AlphaView software. Beta-Actin, GAPDH, and Alpha-Tubulin were used as loading controls. Densitometry was calculated as protein expression/expression of housekeeping gene, relative to the control.
The above findings were validated by looking for similar responses in cell lines in vitro in response to VTX exposure. […]

[3] = tested on: adults with AML; experiment: Clinical outcome of VTX treated patients, clusters by 44-protein classifier (Example 1); type: in vivo, human
Experimental: Reverse Phase Protein Array (RPPA) as described by Tibes et al. 2006 and Kornblau et al. 2011 was performed on leukemia blast enriched fractions prepared from diagnostic samples of 818 adults with AML, of which 143 were treated with venetoclax (VTX) including 33 in combination with high dose Ara-C, 5 with standard dose Ara-C, 50 with hypomethylating agents (HMA), and 13 with HMA and targeted therapy (either CPX-351 liposome, a dual-drug liposomal encapsulation of cytarabine and daunorubicin, or anthracycline). Protein expression levels were evaluated using 390 validated antibodies against total and post translationally modified (phosphorylated, methylated, cleaved) as described by Hoff et al. 2019. proteins and were analyzed in the context of clinical data compiled by retrospective chart review. Pearson correlation was used to identify significant protein-protein correlations. Survival curves were generated by the Kaplan-Meier method and survival data was analyzed by multivariate cox regression model. Protein expression signatures were identified by hierarchical clustering and predictive models of protein classifiers were determined by classification and regression trees (CART) analysis.
We queried the 390 proteins (Table 1) assayed in the 143 VTX treated patients to identify proteins individually prognostic for overall survival (OS) or remission duration (REMDUR) and identified 27 proteins correlated with OS (p<0.01) and 44 proteins correlated with REMDUR (p<0.01). Neither MCL1, BCLXL nor BCL2 expression at diagnosis were prognostic of overall survival (OS) or remission duration (REMDUR).

CC1(C)CCC(CN2CCN(c3ccc(C(=O)NS(=O)(=O)c4ccc(NCC5CCOCC5)c([N+](=O)[O-])c4)c(Oc4cnc5[nH]ccc5c4)c3)CC2)=C(c2ccc(Cl)cc2)C1 [VTX, venetoclax]
median OS ([1]; C1): 182.7 weeks
relapse rate ([1]; C1, patients that achieved remission (n=32)): 21.9%
median OS ([1]; C2): 55.1 weeks
median remission duration ([1]; C2): 129 weeks
relapse rate ([1]; C2, patients that achieved remission (n=40)): 42.5%
median OS ([1]; C3): 35.7 weeks
median remission duration ([1]; C3): 39 weeks
relapse rate ([1]; C3, patients that achieved remission (n=18)): 66.7%
Remission rate ([1]; Cluster 1 (C1)): 82%
Remission rate ([1]; Cluster 2 (C2)): 70%
Remission rate ([1]; Cluster 3 (C3)): 50%
Remission (CR/CRi) achieved ([1]; all evaluable patients (138), n=90): 65%
relapsed, of patients in remission ([1]; of 90 patients in remission, n=36): 40%
reduction in the expression of PKM2 [2]: > 50%
Remission rate ([3]; cluster 1): 61%
relapse risk (RR) at 1-yr ([3]; cluster 1): 45%
estimated 3-yr overall survival ([3]; cluster 1 (n=102)): 27%
Remission rate ([3]; cluster 2): 77%
relapse risk (RR) at 1-yr ([3]; cluster 2): 18%
estimated 3-yr overall survival ([3]; cluster 2 (n=41)): 66%
